Experiments:
[1] = Particle size (mean diameter D[4,3]) by laser light scattering, Malvern Mastersizer MS1; assay type: physicochemical; conditions: product as obtained, not micronised
Protocol: According to present invention, when a particles sample is stated to have mean diameter, referred to as D[4,3], higher than X μm, this means that the mean volume of the particles constituting the sample is higher than the volume of a spherical particle with diameter X.
The particle sizes, i.e. mean diameter values D[4,3], were determined with the known technique of laser light scattering using a Malvern Mastersizer MS1 instrumentation under the following operative conditions: • 300RF mm lens with laser beam length of 2.4 mm; • 100 mg sample dispersed in 100 ml of isopar and 0.5 ml of a 2% solution of lecithin in isopar, with 3 min presonication and 2500 rpm stirring rate.

[2] = Stability of the solid form at room temperature; assay type: physicochemical

| SMILES | mean D[4,3] diameter of particles ([1]; listed as Adapalene Crystalline Form α) | mean D[4,3] diameter of particles ([1]; listed as adapalene crystalline Form a) | stability of the polymorphic form [2] | mean D[4,3] diameter of particles ([1]; listed as Adapalene Amorphous Form) |
| --- | --- | --- | --- | --- |
| COc1ccc(-c2ccc3cc(C(=O)O)ccc3c2)cc1C12CC3CC(CC(C3)C1)C2 [adapalene crystalline Form α, 6-[3-(1-adamantyl)-4-methoxyphenyl]-2-naphthoic acid] | approx. 15 μm | about 15 μm | stable at room temperature |  |
| COc1ccc(-c2ccc3cc(C(=O)O)ccc3c2)cc1C12CC3CC(CC(C3)C1)C2 [adapalene amorphous Form, 6-[3-(1-adamantyl)-4-methoxyphenyl]-2-naphthoic acid] |  |  |  | approx. 15 μm |

From patent US20060116427A1, “Adapalene polymorphic forms” (priority 2004, published 2006)
